How the values were obtained:
[1] = 28-day repeat-dose toxicity study in mice; type: in vivo, Balb/c mice
Procedure: Administration groups of the compound YF027 of the present disclosure and its non-deuterated control compound A were set for a 28-day repeat-dose toxicity study in mice. Each compound was administered to 10 Balb/c mice (5 females and 5 males, purchased from Beijing Vital River Laboratory Animal Technology Co., Ltd.) by intragastric administration. The administration was performed once daily for 6 consecutive days a week for 4 consecutive weeks, and an 8% Tween 80 vehicle control group (10 Balb/c mice, 5 females and 5 males) was set for administration at the same volume using the same method. Table 12. Administration information of repeat-dose toxicity assay
During the administration period, the mice were observed every day. The body weight, appearance signs, behavior and activity, fecal traits, and local reactions at the site of administration were recorded. After the end of the administration, the gross anatomy was performed on the mice in the administration group and the control group. The serum of the mice was collected, and the heart, liver, spleen, kidney, lung, and brain tissues and organs were weighed to calculate organ coefficients. The tissue samples of all groups were subjected to histopathological detection, and the serum samples were analyzed for biochemical parameters of liver and kidney functions. The serum biochemical parameters included: alanine aminotransferase (ALT), aspartate aminotransferase (AST), alkaline phosphatase (ALP), urea (UREA), creatinine (CREA), total protein (TP), and albumin (ALB). Statistical analysis was performed to evaluate potential toxic effects of the compounds.

[2] = molecular target: T1, CYP1A2 (Mus musculus, UniProt P00186); type: in vitro ADME
T1 construct: from tissue; host or cells: mouse liver microsomes (component of a kit)
T1 sequence (P00186 1-513): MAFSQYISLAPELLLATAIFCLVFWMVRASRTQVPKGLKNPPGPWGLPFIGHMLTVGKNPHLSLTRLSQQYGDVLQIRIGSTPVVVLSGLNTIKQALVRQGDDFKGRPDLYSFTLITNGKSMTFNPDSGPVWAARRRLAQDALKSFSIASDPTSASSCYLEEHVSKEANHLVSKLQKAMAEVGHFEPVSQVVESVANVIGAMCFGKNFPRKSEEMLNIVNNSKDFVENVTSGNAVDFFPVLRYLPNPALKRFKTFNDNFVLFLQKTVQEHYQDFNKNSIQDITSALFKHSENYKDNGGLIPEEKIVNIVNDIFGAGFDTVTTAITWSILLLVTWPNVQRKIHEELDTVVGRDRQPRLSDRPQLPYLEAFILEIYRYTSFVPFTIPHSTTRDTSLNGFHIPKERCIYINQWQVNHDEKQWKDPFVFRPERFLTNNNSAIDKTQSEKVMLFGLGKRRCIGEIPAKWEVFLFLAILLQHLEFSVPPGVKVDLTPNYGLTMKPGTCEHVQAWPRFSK
Procedure: (§1) This example was to detect the CYP450 metabolic enzyme phenotype of the deuterated compound YF027 and its non-deuterated control compound A (using a CYP450 enzyme metabolic phenotype research kit (recombinant enzymatic method/7 enzymes)-mouse liver microsome test).
(§2) • a. The test compound was prepared into a 40 mM stock solution for later use. 2.5 µL of the stock solution was taken and diluted with DMSO to a test compound concentration of 200 µM, and the compound at this concentration was used in subsequent tests. • b. The working solution concentration of the mixed positive substrates, phenacetin and testosterone, was 200 µM.
(§3) 1) The components of the kit were thawed in an ice bath. The mixture was well mixed by vortexing and then placed on ice for later use. 2) In addition to the microsomes, the other components of the incubation systems were mixed according to the ratios and well mixed by pipetting, and the ratios of the incubation systems are shown below; Table 6. Incubation system of positive control group
(§4) The inhibitors were quinidine, naphthoflavone, pilocarpine, sodium diethyldithiocarbamate, ticlopidine, ketoconazole, and sulfaphenazole, which corresponded to the inhibition of CYP450 enzymes CYP2D6, CYP1A2, CYP2A6, CYP2E1, CYP2C19, CYP3A4, and CYP2C9, respectively. Table 9. Incubation system of negative control group
(§5) 3) Except for the negative control group (Table 9), 3.125 µL of liver microsomes was added to each of the above incubation systems to prepare 125 µL of reaction solution. The reaction solutions were well mixed by vortexing, and then placed in a water bath at 37 °C to initiate the reaction. A timer was set. 4) At time points of 0 min and 90 min, 50 µL of reaction solution was taken, and a pre-cooled acetonitrile solution was added to the reaction solution. The mixture was quickly well mixed by vortexing to stop the reaction. 5) Mass spectrometry detection pretreatment of reaction solution
(§6) The reaction solution was cryopreserved in a refrigerator at -80 °C overnight and then centrifuged for mass spectrometry detection.
(§7) The detection values after 90 min of incubation were processed as ratios relative to the 0-min detection values to determine the metabolic rate of the compounds in different experimental groups after 90 min. The metabolic inhibition rate was then calculated using the formula: Inhibition rate (%) = (1 - metabolic rate of sample with inhibitor/metabolic rate of sample without inhibitor) × 100%, as shown in Table 10 below. […] The metabolic inhibition rate reflects the effect on the metabolic elimination of the drug after adding different selective inhibitors. […]

[3] = molecular target: T2, CYP2E1 (Mus musculus, UniProt Q05421); type: in vitro ADME
T2 construct: from tissue; host or cells: mouse liver microsomes (component of a kit)
Procedure: as §1, §2, §3, §4, §5, §6, §7

[4] = test system: CYP3A4; type: in vitro ADME, mouse
Procedure: as §1, §2, §3, §4, §5, §6
(§8) The detection values after 90 min of incubation were processed as ratios relative to the 0-min detection values to determine the metabolic rate of the compounds in different experimental groups after 90 min. The metabolic inhibition rate was then calculated using the formula: Inhibition rate (%) = (1 - metabolic rate of sample with inhibitor/metabolic rate of sample without inhibitor) × 100%, as shown in Table 10 below. […] The metabolic inhibition rate reflects the effect on the metabolic elimination of the drug after adding different selective inhibitors. Therefore, when the metabolic inhibition rate of a specific enzyme is ≥ 25%, the contribution of the specific enzyme to the clearance of the drug under study can be inferred to be ≥ 25% based on the results of the in vitro metabolism study.

[5] = test system: CYP2C9; type: in vitro ADME, mouse
Procedure: as §1, §2, §3, §4, §5, §6, §8

[6] = test system: CYP2D6; type: in vitro ADME, mouse
Procedure: as §1, §2, §3, §4, §5, §6, §8

[7] = test system: CYP2A6; type: in vitro ADME, mouse
Procedure: as §1, §2, §3, §4, §5, §6, §8

[8] = test system: CYP2C19; type: in vitro ADME, mouse
Procedure: as §1, §2, §3, §4, §5, §6, §8

[9] = test system: Mycobacterium tuberculosis H37Rv; type: in vivo, BALB/c mice
[10] = test system: Mycobacterium tuberculosis H37Rv; assay: Minimum inhibitory concentration (MIC90) against Mycobacterium tuberculosis H37Rv, Middlebrook 7H9, 96-well plate, 15 days; type: cell-based; conditions: Mycobacterium tuberculosis H37Rv, 15 days of incubation, 90% inhibition of growth, visual reading

T2 sequence (Q05421 whole entry): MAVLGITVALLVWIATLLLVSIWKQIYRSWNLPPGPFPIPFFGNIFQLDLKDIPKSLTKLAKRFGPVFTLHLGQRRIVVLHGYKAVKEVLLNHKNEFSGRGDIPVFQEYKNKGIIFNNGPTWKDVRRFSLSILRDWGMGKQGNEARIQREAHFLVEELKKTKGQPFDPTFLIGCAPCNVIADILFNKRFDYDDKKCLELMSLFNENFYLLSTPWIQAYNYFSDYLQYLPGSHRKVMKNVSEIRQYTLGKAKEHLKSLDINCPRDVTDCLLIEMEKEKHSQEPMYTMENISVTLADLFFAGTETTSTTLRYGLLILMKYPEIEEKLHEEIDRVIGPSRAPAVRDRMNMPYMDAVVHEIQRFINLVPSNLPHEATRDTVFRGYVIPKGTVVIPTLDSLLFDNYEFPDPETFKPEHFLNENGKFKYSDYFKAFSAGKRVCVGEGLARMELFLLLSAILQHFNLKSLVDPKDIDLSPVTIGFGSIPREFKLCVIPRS

In the case of `Cl.[2H]C1([2H])CCCC([2H])([2H])N1C([2H])([2H])c1c(O)cc(C(C)(C)C)c2oc3c4ccc(O)cc4oc(=O)c3c12` [YF027, 10-(tert-Butyl)-3,8-dihydroxy-7-((piperidin-1-yl-2,2,6,6-d4)methyl-d2)-6H-benzofuran[3,2-c]chromen-6-one hydrochloride], the “toxic response after repeated administration” value ([1]; 100 mg/kg for 28 consecutive days, mice) is reported as “did not produce a significant toxic response”, the “mortality during the administration period” value ([1]; 100 mg/kg intragastric, once daily, 6 days a week, 4 weeks, Balb/c mice) is reported as “no mice died” and the “toxicity compared with the non-deuterated compound A” value ([1]; same dosing conditions, 100 mg/kg, 28 days, mice) is reported as “no increased toxicity was observed”. For the same compound, the Inhibition rate [2] was 0.4%, the Inhibition rate [3] was -15.1% and the Inhibition rate [4] was 16.5%. The Inhibition rate [5] was 3.7%, the Inhibition rate [6] was -1.3% and the Inhibition rate [7] was 14.0%. For the same compound, the Inhibition rate [8] was -5.7%, the “pulmonary Mycobacterium tuberculosis clearance rate” value ([9]; 100 mg/kg intragastrically, 4 weeks, mice) was 99.0% and the “reduction of pulmonary bacterial load” value ([9]; mouse, in vivo) was 1.98 log. For the same compound, the MIC90 [10] was ≤3.9 ng/mL.

Reference: EP4775586A1, “DEUTERATED TETRACYCLIC DERIVATIVE AND USE THEREOF” (priority 2023, dated 2025)
